ChEMBL document CHEMBL5226384, “Total Syntheses, Absolute Configurations, and Cytotoxicity Evaluation of Ugonstilbenes A, B, and C from the Rhizomes of Helminthostachys zeylanica” (J Nat Prod, 2023)
pIC50: −log10 of the molar value.

Key:
[1] = Cytotoxicity against fibroblast (unknown origin) cells assessed as reduction in cell viability incubated for 6 hrs by SRB assay; type: toxicity, cell-based
HT-29 = experiment: Cytotoxicity against human HT-29 cells assessed as reduction in cell viability incubated for 6 hrs by SRB assay; type: functional, cell-based; conditions: HT-29, 6 h
MCF7 = experiment: Cytotoxicity against human MCF7 cells assessed as reduction in cell viability incubated for 6 hrs by SRB assay; type: functional, cell-based; conditions: MCF7, 6 h
CCRF-CEM = experiment: Cytotoxicity against human CCRF-CEM cells assessed as reduction in cell viability incubated for 6 hrs by SRB assay; type: functional, cell-based
NCI-H460 = experiment: Cytotoxicity against human NCI-H460 cells assessed as reduction in cell viability incubated for 6 hrs by SRB assay; type: functional, cell-based; conditions: NCI-H460, 6 h

SMILES: CC1=CCCC(C)(C)[C@@H]1Cc1c(O)cc(/C=C/c2ccc(O)cc2)cc1O
- IC50 at 6 h [1]: 6.6 µM
- pIC50 (HT-29): 5.36
- pIC50 (MCF7): 5.10
- pIC50 (CCRF-CEM): 6.57
- pIC50 (NCI-H460): 5.77

SMILES: Oc1ccc(/C=C/c2cc(O)cc(O)c2)cc1 [RESVERATROL]
- IC50 at 6 h [1]: 218 µM
- pIC50 (HT-29): 3.92
- pIC50 (MCF7): 3.87
- pIC50 (CCRF-CEM): 6.05
- pIC50 (NCI-H460): 4.24

SMILES: CC1=CCCC(C)(C)[C@H]1Cc1c(O)cc(/C=C/c2ccc(O)cc2)cc1O
- IC50 at 6 h [1]: 6.6 µM
- pIC50 (HT-29): 5.60
- pIC50 (MCF7): 5.77
- pIC50 (CCRF-CEM): 6.09
- pIC50 (NCI-H460): 5.77

SMILES: CC1=CCCC(C)(C)[C@H]1Cc1cc(/C=C/c2cc(O)cc(O)c2)ccc1O
- IC50 at 6 h [1]: 7.4 µM
- pIC50 (HT-29): 5.30
- pIC50 (MCF7): 5.36
- pIC50 (CCRF-CEM): 5.55
- pIC50 (NCI-H460): 5.22

SMILES: CC1(C)CCC[C@@]2(C)Oc3cc(/C=C/c4ccc(O)cc4)cc(O)c3C[C@@H]12
- IC50 at 6 h [1]: 7.1 µM
- pIC50 (HT-29): 5.66
- pIC50 (MCF7): 5.85
- pIC50 (CCRF-CEM): 5.96
- pIC50 (NCI-H460): 5.77

SMILES: COc1cccc2c1C(=O)c1c(O)c3c(c(O)c1C2=O)C[C@@](O)(C(=O)CO)C[C@@H]3O[C@H]1C[C@H](N)[C@H](O)[C@H](C)O1 [DOXORUBICIN]
- IC50 at 6 h [1]: 67 µM
- pIC50 (HT-29): 6.92
- pIC50 (MCF7): 6.57
- pIC50 (CCRF-CEM): 7.05
- pIC50 (NCI-H460): 8.00

SMILES: CC1(C)CCC[C@]2(C)Oc3cc(/C=C/c4ccc(O)cc4)cc(O)c3C[C@H]12
- IC50 at 6 h [1]: 6.6 µM
- pIC50 (HT-29): 5.44
- pIC50 (MCF7): 5.72
- pIC50 (CCRF-CEM): 5.77
- pIC50 (NCI-H460): 5.85

SMILES: CC1(C)CCC[C@]2(C)Oc3ccc(/C=C/c4cc(O)cc(O)c4)cc3C[C@H]12
- IC50 at 6 h [1]: 8 µM
- pIC50 (HT-29): 5.48
- pIC50 (MCF7): 5.77
- pIC50 (CCRF-CEM): 5.85
- pIC50 (NCI-H460): 5.66

SMILES: CC1(C)CCC[C@@]2(C)Oc3ccc(/C=C/c4cc(O)cc(O)c4)cc3C[C@@H]12
- IC50 at 6 h [1]: 6.9 µM
- pIC50 (HT-29): 5.55
- pIC50 (MCF7): 5.55
- pIC50 (CCRF-CEM): 5.85
- pIC50 (NCI-H460): 5.60

SMILES: CC1=CCCC(C)(C)[C@@H]1Cc1cc(/C=C/c2cc(O)cc(O)c2)ccc1O
- IC50 at 6 h [1]: 7.1 µM
- pIC50 (HT-29): 5.28
- pIC50 (MCF7): 5.39
- pIC50 (CCRF-CEM): 5.52
- pIC50 (NCI-H460): 5.26
